# Reference: US20160051527A1, “METHODS AND KITS FOR TREATING AND CLASSIFYING INDIVIDUALS AT RISK OF OR SUFFERING FROM A NEUROLOGICAL DYSFUNCTION OR DISORDER” (priority 2013, published 2016)
# Tested on: patients with a single variant in the ChAT gene (340L>F or 510R>Q)
# Experiment: Clinical response to medications prior to sequencing in patients carrying a ChAT gene variant
# Details: 2/2 patients, dampens opposing sympathetic activity
smiles,measurement,value
CC(C)NCC(O)COc1cccc2ccccc12 (stereo not shown) [propranolol],clinical response,clinical improvement
